Entries after “also recorded” stand apart in the source; their conditions may differ.
Columns and labels:
[1] = biological target: T1, androgen receptor (Homo sapiens, UniProt P10275); assay: Androgen receptor nuclear translocation in dermal papilla cells (EGFP-AR, fluorescence microscopy); assay type: cell-based; conditions: DHT co-treated with 100 ppm, 24 hours, FIGS. 5 and 6
T1 construct: host or cells: dermal papilla cells
T1 sequence (P10275 1-920): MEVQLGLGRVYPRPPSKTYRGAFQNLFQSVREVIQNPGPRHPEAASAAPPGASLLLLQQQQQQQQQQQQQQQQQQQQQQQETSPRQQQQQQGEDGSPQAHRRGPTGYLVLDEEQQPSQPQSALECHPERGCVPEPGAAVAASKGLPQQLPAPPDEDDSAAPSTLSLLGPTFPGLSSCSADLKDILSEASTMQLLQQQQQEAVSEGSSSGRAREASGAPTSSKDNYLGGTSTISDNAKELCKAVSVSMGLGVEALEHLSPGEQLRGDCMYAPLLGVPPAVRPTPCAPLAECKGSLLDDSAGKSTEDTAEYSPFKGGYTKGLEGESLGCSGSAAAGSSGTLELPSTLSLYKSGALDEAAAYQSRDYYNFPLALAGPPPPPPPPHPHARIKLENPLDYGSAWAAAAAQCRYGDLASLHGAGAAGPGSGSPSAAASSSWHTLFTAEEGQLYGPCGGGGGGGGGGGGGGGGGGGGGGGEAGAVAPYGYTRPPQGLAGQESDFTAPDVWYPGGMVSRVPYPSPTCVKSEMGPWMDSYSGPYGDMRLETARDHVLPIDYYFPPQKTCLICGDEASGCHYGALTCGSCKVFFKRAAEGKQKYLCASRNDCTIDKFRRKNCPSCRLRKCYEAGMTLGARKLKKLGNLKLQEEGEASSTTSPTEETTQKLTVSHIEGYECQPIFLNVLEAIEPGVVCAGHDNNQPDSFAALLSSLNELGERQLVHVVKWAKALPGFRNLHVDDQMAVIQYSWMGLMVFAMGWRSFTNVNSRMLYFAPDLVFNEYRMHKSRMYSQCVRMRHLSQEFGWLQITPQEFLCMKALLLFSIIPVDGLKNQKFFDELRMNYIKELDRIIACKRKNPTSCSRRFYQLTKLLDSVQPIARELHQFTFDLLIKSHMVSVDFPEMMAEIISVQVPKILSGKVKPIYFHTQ
Procedure: To confirm the involvement of androgen receptors in hair loss-related gene transcription, recombinant plasmid EGFP-AR (Addgene) was used, and the extent of androgen receptor nuclear translocation in dermal papilla cells was measured using a cellular injection method.
For the untreated group, only DHT was treated, and for the negative control group, neither DHT nor the sample was treated. In the experimental group, DHT and Meloside A or L at 100 ppm were co-treated, and after 24 hours, measurements were taken using a fluorescence microscope at Ex 485 nm and Em 535 nm. The results observed with the fluorescence microscope are shown in FIG. 5, and the number of cells with translocated androgen receptors in the treated groups, based on the untreated group, is shown in FIG. 6.

[2] = test system: DKK1; assay: DKK1 expression in DHT-treated HDPC supernatant (ELISA); assay type: cell-based, human; conditions: HDPC treated with DHT, 30 or 100 ppm, 1 day, FIG. 7
Procedure: HDPC were treated with DHT to increase DKK1 expression, and then treated with Meloside A or L at concentrations of 30 or 100 ppm, respectively, for 1 day to obtain the cell supernatant. For comparison, HDPC treated with Dihydrotestosterone (DHT) but without Meloside A and L were used as the untreated group, and HDPC treated with 100 μM Minoxidil were used as the positive control group.
The increase or decrease in DKK1 expression level in the obtained cell supernatant was confirmed through an Enzyme-Linked Immunosorbent Assay (ELISA) method, and the results are shown in FIG. 7.

[3] = test system: reactive oxygen species (ROS); assay: DHT-induced intracellular reactive oxygen species in HDPC (DCF-DA fluorescence); assay type: cell-based, human; conditions: 30 or 100 ppm with 100 μg/mL DHT, 24 hours, FIGS. 12 and 13
Procedure: The intracellular reactive oxygen species inhibition effect was evaluated using human hair dermal papilla cells (HDPC). Measurement was performed by utilizing the principle that the non-fluorescent substance 2′,7′-dichlorodihydrofluorescein diacetate (DCF-DA) reacts with intracellularly generated free radicals and oxidizes into the fluorescent substance 2′,7′-dichlorofluorescein (DCF).
Human dermal papilla cells were seeded into 12-well plates at 5.5×10^4 cells/well and cultured for 24 hours in a 37° C., 5% CO2 incubator. Subsequently, samples prepared at various concentrations were treated into each well and cultured for 23 hours in a 37° C., 5% CO2 incubator. For the treated groups, Meloside A or L at 30 or 100 ppm were treated along with DHT. For control groups, HDPC treated with 100 μg/mL DHT but without Meloside A and L, and untreated HDPC (neither Meloside A or L nor DHT) were used. […] After removing DCF-DA and washing twice with PBS, images were taken every 10 minutes for 30 minutes using a fluorescence microscope at Ex 485 nm and Em 535 nm. The level of intracellular reactive oxygen species generation was measured by quantifying fluorescence intensity in […] using Image J, thereby confirming the ROS reduction efficacy of Meloside.

| SMILES | DHT-induced translocation of androgen receptors (number of cells with translocated AR) [1] | DKK1 expression level [2] | reactive oxygen species (ROS) generation [3] |
| --- | --- | --- | --- |
| O=c1cc(-c2ccc(O)cc2)oc2cc(O)c([C@@H]3O[C@H](CO)[C@@H](O)[C@H](O)[C@H]3O[C@@H]3O[C@H](CO)[C@@H](O)[C@H](O)[C@H]3O)c(O)c12 [Meloside A, isovitexin 2″-O-glucoside] | inhibited; also recorded: superior to that of Meloside L treatment | concentration-dependent decrease in DKK1 expression | reduction in reactive oxygen species (ROS) generation |
| O=c1cc(-c2ccc(O)c(O)c2)oc2cc(O)c([C@@H]3O[C@H](CO)[C@@H](O)[C@H](O)[C@H]3O[C@@H]3O[C@H](CO)[C@@H](O)[C@H](O)[C@H]3O)c(O)c12 [Meloside L, isoorientin 2″-O-glucoside] | inhibited | no effect was observed | reduction in reactive oxygen species (ROS) generation |
